From ChEMBL document CHEMBL1149916, “Natural products, small molecules, and genetics in tuberculosis drug development” (J Med Chem, 2008)
pKi: −log10 of the molar value.

Assays:
[1] = target: T1, Enoyl-[acyl-carrier-protein] reductase [NADH] (Mycobacterium tuberculosis, UniProt P9WGR1); assay: Inhibition of Mycobacterium tuberculosis Enoyl-[acyl-carrier-protein] reductase
T1 sequence (P9WGR1 whole entry): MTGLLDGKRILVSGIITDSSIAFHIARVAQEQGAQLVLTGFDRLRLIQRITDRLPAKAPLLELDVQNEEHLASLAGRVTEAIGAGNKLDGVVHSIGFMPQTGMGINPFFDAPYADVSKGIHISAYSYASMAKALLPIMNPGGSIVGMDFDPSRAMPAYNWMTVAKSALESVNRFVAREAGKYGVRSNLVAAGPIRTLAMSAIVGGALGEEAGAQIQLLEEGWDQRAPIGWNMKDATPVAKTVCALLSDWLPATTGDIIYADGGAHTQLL

[2] = Inhibition of Mycobacterium tuberculosis acyl-CoA corboxylase corboxyltransferase domain 5

| SMILES | pKi [1] | pKi [2] |
| --- | --- | --- |
| CCCCCCCCc1ccc(Oc2ccccc2)c(O)c1 | 9.00 |  |
| Nc1ccc(/N=N/c2ccc(-c3ccc(O)cc3)cc2)c2ccc(S(=O)(=O)O)cc12 |  | 4.89 |
